In patent US20240109917A1 (ACTELION PHARMACEUTICALS LTD, priority 2020, published 2024):

What was measured:
[1] = target: His6-TEV-PDGFRβ (557-1016) (Homo sapiens (Human), UniProt P09619); assay: PDGFRβ HTRF Assay; format: biochemical; conditions: read-out: PDGFR HTRF IC50
Outline: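 HTRF KinEASE-TK readout (665/620 nm ratio) of TK-biotin substrate phosphorylation by His-tagged PDGFRβ kinase domain. Enzyme and inhibitor preincubated 30 min, then ATP/substrate added for 3 h at room temperature before 60 min EDTA quench/detection.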

VEGFR2, unphosphorylated = VEGFR2, unphosphorylated (Homo sapiens (Human), UniProt P35968); assay: VEGFR ADP GLO Assay; format: biochemical
Chain of VEGFR2, unphosphorylated (P35968 20-1356): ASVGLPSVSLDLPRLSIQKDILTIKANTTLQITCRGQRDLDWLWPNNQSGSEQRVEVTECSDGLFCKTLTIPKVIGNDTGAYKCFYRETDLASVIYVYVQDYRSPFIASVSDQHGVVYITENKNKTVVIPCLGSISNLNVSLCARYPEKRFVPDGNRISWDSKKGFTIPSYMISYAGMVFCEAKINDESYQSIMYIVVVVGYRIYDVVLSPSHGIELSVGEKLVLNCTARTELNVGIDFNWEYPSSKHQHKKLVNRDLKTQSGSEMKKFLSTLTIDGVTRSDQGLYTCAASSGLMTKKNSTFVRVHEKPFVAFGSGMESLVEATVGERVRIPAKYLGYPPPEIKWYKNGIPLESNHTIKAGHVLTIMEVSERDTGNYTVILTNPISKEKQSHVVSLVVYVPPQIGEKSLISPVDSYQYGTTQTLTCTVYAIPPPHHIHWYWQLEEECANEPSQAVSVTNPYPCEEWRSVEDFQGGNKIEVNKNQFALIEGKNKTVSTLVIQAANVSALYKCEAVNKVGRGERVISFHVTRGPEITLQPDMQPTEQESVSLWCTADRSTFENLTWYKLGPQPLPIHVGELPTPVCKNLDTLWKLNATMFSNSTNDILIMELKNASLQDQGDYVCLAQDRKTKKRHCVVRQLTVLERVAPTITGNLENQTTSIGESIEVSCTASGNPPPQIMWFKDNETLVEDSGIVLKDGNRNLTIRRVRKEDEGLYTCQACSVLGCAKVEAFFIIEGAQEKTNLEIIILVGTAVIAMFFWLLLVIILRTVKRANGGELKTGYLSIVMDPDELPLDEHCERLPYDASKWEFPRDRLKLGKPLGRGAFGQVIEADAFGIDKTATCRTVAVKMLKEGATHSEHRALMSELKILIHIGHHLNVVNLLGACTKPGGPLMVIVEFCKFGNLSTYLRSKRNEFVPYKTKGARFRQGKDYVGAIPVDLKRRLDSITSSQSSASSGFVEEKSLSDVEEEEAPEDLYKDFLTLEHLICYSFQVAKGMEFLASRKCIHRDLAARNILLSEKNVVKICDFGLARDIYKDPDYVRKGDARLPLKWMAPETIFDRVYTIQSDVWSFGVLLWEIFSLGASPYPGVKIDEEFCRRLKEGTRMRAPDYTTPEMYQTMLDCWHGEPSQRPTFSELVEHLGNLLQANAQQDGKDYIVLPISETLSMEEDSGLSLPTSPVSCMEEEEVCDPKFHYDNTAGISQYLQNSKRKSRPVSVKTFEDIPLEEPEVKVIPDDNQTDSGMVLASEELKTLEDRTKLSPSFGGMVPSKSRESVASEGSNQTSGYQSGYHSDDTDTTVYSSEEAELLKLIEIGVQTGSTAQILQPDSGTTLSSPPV

Chain of His6-TEV-PDGFRβ (557-1016) (P09619 557-1016): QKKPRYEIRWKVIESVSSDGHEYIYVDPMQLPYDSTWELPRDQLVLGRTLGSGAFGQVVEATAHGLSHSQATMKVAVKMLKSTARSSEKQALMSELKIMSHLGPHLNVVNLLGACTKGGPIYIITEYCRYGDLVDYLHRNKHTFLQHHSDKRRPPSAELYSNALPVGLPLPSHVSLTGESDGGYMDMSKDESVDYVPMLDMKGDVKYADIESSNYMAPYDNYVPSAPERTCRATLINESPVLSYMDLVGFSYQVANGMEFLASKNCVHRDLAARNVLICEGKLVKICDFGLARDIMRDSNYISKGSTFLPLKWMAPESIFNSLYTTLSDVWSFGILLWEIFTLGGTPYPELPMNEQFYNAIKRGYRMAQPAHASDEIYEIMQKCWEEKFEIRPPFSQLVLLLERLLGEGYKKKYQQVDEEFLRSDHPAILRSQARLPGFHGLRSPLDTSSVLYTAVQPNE

## Cc1ncc(NC(=O)CN2CC(C)(C)C2)cc1NC(=O)c1cnn2cc(-c3cccnc3C)sc12 [Example 390, N-(5-(2-(3,3-dimethylazetidin-1-yl)acetamido)-2-methylpyridin-3-yl)-2-(2-methylpyridin-3-yl)pyrazolo[5,1-b]thiazole-7-carboxamide]
[1]
  IC50: 0.6 nM
VEGFR2, unphosphorylated
  IC50: > 7500 nM

## Cc1ncc(NC(=O)CN2CCCC23CCC3)cc1NC(=O)c1cnn2cc(-c3cnn(CCO)c3)sc12 [Example 29, N-(5-(2-(5-azaspiro[3.4]octan-5-yl)acetamido)-2-methylpyridin-3-yl)-2-(1-(2-hydroxyethyl)-1H-pyrazol-4-yl)pyrazolo[5,1-b]thiazole-7-carboxamide]
[1]
  IC50: 0.4 nM
VEGFR2, unphosphorylated
  IC50: > 7500 nM

## COCCCc1cn2ncc(C(=O)Nc3cc(C(=O)NCCN4CCCC4(C)C)cnc3C)c2s1 [Example 360, N-(5-((2-(2,2-dimethylpyrrolidin-1-yl)ethyl)carbamoyl)-2-methylpyridin-3-yl)-2-(3-methoxypropyl)pyrazolo[5,1-b]thiazole-7-carboxamide]
[1]
  IC50: 4.9 nM
VEGFR2, unphosphorylated
  IC50: > 7500 nM

## COc1cnccc1-c1cn2ncc(C(=O)Nc3cc(NC(=O)CN4CC(C)(C)C4)cnc3C)c2s1 [Example 399, N-(5-(2-(3,3-dimethylazetidin-1-yl)acetamido)-2-methylpyridin-3-yl)-2-(3-methoxypyridin-4-yl)pyrazolo[5,1-b]thiazole-7-carboxamide]
[1]
  IC50: 0.2 nM
VEGFR2, unphosphorylated
  IC50: 4770 nM

## COC/C=C/c1cn2ncc(C(=O)Nc3cc(C(=O)NCCN4CCCC4(C)C)cnc3C)c2s1 [Example 361, (E)-N-(5-((2-(2,2-dimethylpyrrolidin-1-yl)ethyl)carbamoyl)-2-methylpyridin-3-yl)-2-(3-methoxyprop-1-en-1-yl)pyrazolo[5,1-b]thiazole-7-carboxamide]
[1]
  IC50: 1.3 nM
VEGFR2, unphosphorylated
  IC50: > 7500 nM
